The subject of experiment [1] is hyaluronic acid levels in adult human dermal fibroblast (aHDF) conditioned media. The experiment is described as follows: Hyaluronic acid in fibroblast-conditioned medium (HA-ELISA). It counts as cell-based. The following applies: positive control, 5 ng/ml, 96 h. An excerpt:
Hyaluronic acid (hyaluronan, HA), a naturally occurring carbohydrate polymer is a key component of connective, epithelial and neural tissues. HA participates in hydrodynamics, movement and proliferation of cells. This test was designed to determine whether a sample of palmitylated and non-palmitylated MNTF hexapeptide has an effect on hyaluronic acid levels in the adult human dermal fibroblast (aHDF) conditioned media.
Adult HDF (facial, passage 2, Cell Applications, San Diego, Calif. cat.#106-05A lot#1392) were plated in high glucose phosphate-free DMEM supplemented with 5% cosmic serum from Hyclone, Utah) at 6,000 cells per well and test materials were added the following day. Test materials were: Pal-Hexapeptide (palmitylated SEQ ID NO:2 as a lyophilized powder labeled APC 341055, lot V08150A1, received from DermaCare Neuroscience Institute), type I sterile water (negative control) and basic fibroblast growth factor (bFGF, positive control). Pal-Hexapeptide was dissolved in water at 20 mg/ml. Final concentrations tested were: 400, 200, 100, 50 and 25 ug/ml for DNP and 5 ng/ml for bFGF (plate 507). After 96 h, cell culture conditioned media were collected and 100 ul aliquotes were used for the HA assay. HA assay was performed using Hyaluronan Enzyme-Linked Immunosorbent Assay Kit (HA-ELISA, cat. #K-1200) from Echelon (Salt Lake City, Utah). The HA output was measured by following the generation of a chromophoric reaction product in 96 well plate, with the use of a BioRad microplate reader at 410 nm and the effect of the test materials was determined using the formula: Absorbance 410 (sample)/Absorbance 410 (Zero HA)×100.
Adult HDF (facial, passage 2, Cell Applications, San Diego, Calif. cat.#106-05A lot#1392) were plated in high glucose phosphate-free DMEM supplemented with 5% cosmic serum from Hyclone, Utah) at 6,000 cells per well and test materials were added the following day. Test materials were: hexapeptide (SEQ ID NO:2 (non-palmitylated), lyophilized powder lot #D294, received from DermaCare Neuroscience Institute), type I sterile water (negative control) and basic fibroblast growth factor (bFGF, positive control). Pal-Hexapeptide was dissolved in water at 20 mg/ml. Final concentrations tested were: 2000, 1000, 500 and 250 ug/ml for hexapeptide and 5 ng/ml for bFGF (plate 507). After 96 h, cell culture conditioned media were collected and 100 ul aliquotes were used for the HA assay. HA assay was performed using Hyaluronan Enzyme-Linked Immunosorbent Assay Kit (HA-ELISA, cat. #K-1200) from Echelon (Salt Lake City, Utah). The HA output was measured by following the generation of a chromophoric reaction product in 96 well plate, with the use of a BioRad microplate reader at 410 nm and the effect of the test materials was determined using the formula: Absorbance 410 (sample)/Absorbance 410 (Zero HA)×100.
Background: ELISA stands for enzyme-linked immunosorbent assay.

Experiment [2] deals with gamma interferon-induced NO production in epidermal keratinocytes. The experiment can be described thus: Inhibition of gamma interferon-induced nitric oxide production in keratinocytes (Griess reaction). Type of experiment: cell-based. The note with it: positive control, aminoguanidine 10 mg/mL plus gamma interferon. An excerpt: The study method chosen is similar to that published in the reference Tsai et al. (Tsai et al, Inhibition of inflammatory nitric oxide production and epidermis damages by Saccharomycopsis Ferment Filtrate. J Dermatol Sci 2006 June 42 (3): 249-57. Laskin, Multifunctional Role of Nitric Oxide in Inflammation, Trends Endocrinol Metab 1994; 5:377-382. Lyons, Emerging Roiles of Nitric Oxide in Inflammation, Hospital Practice, Jul. 15, 1996: 69-86.)
The objective of the study was to investigate the inhibition effect of Pal-hexapeptide (SEQ ID NO: 2, in palmitylated form) on gamma interferon-induced NO production in epidermal keratinocytes in culture.
Anti-inflammatory effect was observed as a reduction of nitric oxide production in keratinocytes. Keratinocytes were incubated 48 hours with gamma-interferon (300 U/ml) alone (as control) or with gamma-interferon together with different concentrations (0.1 μM, 1 μM, 10 μM, 100 μM and 1000 μM) of Pal-hexapeptide. Gamma interferon plus aminoguanidine (10 mg/mL) was used as positive control. The amount of NO production was detected by Griess reaction. Nitric oxide readily oxides to nitrite in aqueous medium, and this reaction was measured as nitrite accumulation in the medium. […] The optical density of the wells were read using a Tibertek Mutiskan (MCC microplate reader at a wavelength of 540 nm, subtracting the absorbance at a reference wavelength of 620 nm.) A printout of the absorbance values was generated by the plate reader, and data were entered into an EXCEL spreadsheet for analysis. The average absorbance and standard deviations were expressed as percent of control absorbances.
A general note: The Griess reaction detects nitrite, a stable product of nitric oxide.

This note sets out measurements from patent US8334253B2, “Cosmetic and dermatological formulations of MNTF peptides” (Dermacare Neuroscience Institute, priority 2008, dated 2012).

Regarding “basic fibroblast growth factor [bFGF, reference compound]”, in experiment [1], the “stimulation of hyaluronic acid in the fibroblast-conditioned medium” value is listed as “moderately stimulatory activity”.
Consider `N=C(N)NN` [AG, aminoguanidine, reference compound], for which the entries for the “nitric oxide production induced by Gamma-interferon, % of the control” value in experiment [2] and in experiment [2] (listed as positive control) were 42% and 25%, respectively.
